We go through one compound from US20230270148A1, “BITTER BLOCKERS AND RELATED METHODS OF USE” (Conagen Inc., priority 2020, published 2023).

SMILES strings stand for the structures.

Experiment [1] relates to melted dark chocolate pieces with 100% dark cacao. As to the kind of experiment: Sensory evaluation: bitterness reduction of dark chocolate pieces. As to conditions: dosage 50 or 100 ppm per sample. The experiment is classed as in vivo. The protocol: (§1) The bitterness blocker candidates listed in Table 1 were prepared into a 1% sample solution with propylene glycol and heated to ensure complete solubilization. […] Individually, the respective sample solution was added to melted dark chocolate pieces with 100% dark cacao. A trained sensory evaluator was asked to estimate the perceived bitterness reduction against the control, as well as to provide comments on how the addition of the individual sample solution modulated the taste and mouth feel profile of the resulting melted dark chocolate pieces.

A further experiment deals with CBD isolate nanoemulsion. Briefly: Sensory evaluation: bitterness reduction of CBD isolate. The experiment is classed as in vivo. As to conditions: dosage 50 or 100 ppm per sample. As to the method:
The bitterness blocker candidates listed in Table 1 were prepared into a 1% sample solution with propylene glycol and heated to ensure complete solubilization. […] A CBD isolate was emulsified into a water-soluble nanoemulsion first, to which was added the respective sample solution. […] A trained sensory evaluator was asked to estimate the perceived bitterness reduction against the control, as well as to provide comments on how the addition of the individual sample solution modulated the taste and mouth feel profile of the resulting nanoemulsion.

Experiment [2] deals with bitter-responsive human taste bud tissue-derived cells (hTBEC). Briefly: ATP secretion detection assay (luminescence). The experiment is classed as cell-based. The protocol: The bitter blocker candidates were further characterized using bitter-responsive human taste bud tissue-derived cells (hTBEC) platforms and bioassays. Bitter-responsive hTBECs were treated with hitter blocker candidates and various bitter agonists to assess the efficacy of each bitter blocker candidate in reducing the bitterness of each of the various bitter agonists.
One industry standard bitter agonist was used as a control (L-Praziquantel), and five bitter blocker controls were used (Senomyx BB68, STX-001, sodium gluconate, eridictyol, and homoeridictyol).
BB09, BB11, and BB13 were first tested at various concentrations in combination with 100 μM Dextromethorphan-HBr.
Next, bitter blocker concentration ranges were narrowed (100 μM-1,000 μM) and compared to a fixed concentration of stimulus. […] BB13 was evaluated further by real time ATP secretion detection in pooled hTBEC 66 cells treated with 300 μM Theobromine.
Each culture was treated with BB09, BB11, BB13, STX001, or Senomyx BB68, as well as either Dextromethorphan-HBr at 1000 μM (FIGS. 18A-18C), Theobromine at 1,000 μM (FIGS. 19A-19C), Rebaudioside A at 1 mM (FIGS. 20A-20C), or Caffeine at 3 mM (FIGS. 21A-21C).

In experiment [3] the test system is peach-flavored energy drink (caffeine, B vitamins). As to the kind of experiment: Sensory evaluation: bitterness reduction of a peach-flavored energy drink. It is filed as in vivo. As to conditions: caffeine about 710 mg/l, dosage (ppm) per sample (20 to 50-100 ppm). The protocol: The bitterness blocker candidates listed in Table 1 were prepared into a 1% sample solution with propylene glycol and heated to ensure complete solubilization. […] A trained sensory evaluator was asked to estimate the perceived bitterness reduction against the control, as well as to provide comments on how the addition of the individual sample solution modulated the taste and mouth feel profile of the resulting peach-flavored energy drink.

Experiment [4] concerns cough syrup ROBITUSSIN DM (dextromethorphan HBr and guaifenesin). As to the kind of experiment: Sensory evaluation: bitterness reduction of cough syrup ROBITUSSIN DM. The experiment is classed as in vivo. As to conditions: dosage 50 or 100 ppm per sample. As to the method:
as §1, with “a cough syrup sold under the trade name ROBITUSSIN® DM. The bitter-tasting agents contained in the cough syrup were dextromethorphan HBr USP 20 mg and guaifenesin USP 400 mg (as measured for each 20 ml serving, or 21000 mg/l of bitter tastants in total).” for “melted dark chocolate pieces with 100% dark cacao.”, “cough syrup.” for “melted dark chocolate pieces.”

Experiment [5] concerns cough syrup DELSYM (dextromethorphan HBr). As to the kind of experiment: Sensory evaluation: bitterness reduction of cough syrup DELSYM. As to conditions: dosage 50 or 100 ppm per sample. It is filed as in vivo. The protocol:
as §1, with “a cough syrup sold under the trade name DELSYM®. The bitter-tasting agent contained in the cough syrup were dextromethorphan HBr USP 30 mg (as measured for each 5 ml teaspoon, i.e., 6000 mg/l of dextromethorphan).” for “melted dark chocolate pieces with 100% dark cacao.”, “cough syrup.” for “melted dark chocolate pieces.”

The next experiment deals with dark roast coffee. As to the kind of experiment: Sensory evaluation: bitterness reduction of dark roast coffee. The experiment is classed as in vivo. As to conditions: dosage 50 or 100 ppm per sample. The protocol:
The bitterness blocker candidates listed in Table 1 were prepared into a 1% sample solution with propylene glycol and heated to ensure complete solubilization. […] A trained sensory evaluator was asked to estimate the perceived bitterness reduction against the control, as well as to provide comments on how the addition of the individual sample solution modulated the taste and mouth feel profile of the resulting dark roast coffee.

Another experiment relates to THC nanoemulsion. As to the kind of experiment: Sensory evaluation: bitterness reduction of THC. It is filed as in vivo. To be noted: dosage 50 or 100 ppm per sample. The protocol: The bitterness blocker candidates listed in Table 1 were prepared into a 1% sample solution with propylene glycol and heated to ensure complete solubilization. […] THC was first emulsified into a water-soluble nanoemulsion (10 mg THC per serving), to which was added the respective sample solution. A trained sensory evaluator was asked to estimate the perceived bitterness reduction against the control, as well as to provide comments on how the addition of the individual sample solution modulated the taste and mouth feel profile of the resulting nanoemulsion.

Regarding `COc1cc([C@@H]2CC(=O)c3c(O)cc(O)cc3O2)ccc1O[C@@H]1O[C@H](CO)[C@@H](O)[C@H](O)[C@H]1O` [BB11, Homoeriodictyol 4′-O-glucoside], the Comments entry is listed as “Good bitterness reduction but” in experiment [1]; “Nice upfront bitterness reduction” in the experiment on CBD isolate nanoemulsion; “Less bitter, smoother, more” in experiment [4]; “Less bitter, smoother, more” in experiment [5]; “Nice upfront bitterness reduction” in the experiment with dark roast coffee; “Nice upfront bitterness reduction” in the experiment on THC nanoemulsion (THC nanoemulsion). In addition, the “Estimated % bitterness reduction” value in experiment [1] is 60%; in the experiment on CBD isolate nanoemulsion, 60%; in experiment [3], 80%; in experiment [4] (21000 mg/l of bitter tastants), 60%; in experiment [5] (6000 mg/l of dextromethorphan) it was 60%; with dark roast coffee (caffeine about 740 mg/l), 80%. Also, the “Estimated % bitterness reduction” value with THC nanoemulsion (THC nanoemulsion (10 mg THC per serving)) was 60%. In experiment [2] (100 μM Dextromethorphan-HBr, various blocker concentrations (FIG. 12)), the “inhibition of luminescence activity of Dextromethorphan-HBr (ATP secretion)” value was “able to inhibit”. The “inhibition of the L-Praziquantel response (ATP secretion)” value in experiment [2] (400 μM L-Praziquantel, pooled donor-derived hTBEC (FIG. 13)) was “showed inhibition”. For the same compound, in experiment [2] (hTBEC 66, hTBEC 56, hTBEC Donor H, Dextromethorphan-HBr at 1000 μM, Theobromine 1,000 μM, Rebaudioside A 1 mM or Caffeine 3 mM (FIGS. 18-21)), the “inhibition of the bitter agonists (ATP secretion)” value is reported as “trends of inhibition in most cases”.
